Here are results for ten compounds from ChEMBL document CHEMBL1201862, “PubChem BioAssay data set” (2004).

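A five-concentration, 48-hour dose response in 96-well plates underlies each endpoint, interpolated linearly between surrounding concentrations. The concentration for 50% growth inhibition is given as GI50.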 Calls of active or inactive are those of the source. Cut-off read from the data, not from the text of the source: active = GI50 up to about 1.1 µM and inactive = higher.

One may read the GI50 as the concentration giving 50% growth inhibition.

Among the test systems are IGROV-1; HT-29; TK-10; SF-295; ACHN; LOX IMVI; Malme-3M; SF-539; 786-0; RXF 393; RPMI-8226; NCI-H226; OVCAR-4; SNB-75; OVCAR-3; SF-268; KM12; M14; SNB-78.
Test in all cases: DTP human tumour cell line panel, 48 h

Regarding `COc1c(Cl)c(Cl)c(OC)c2c1C(=O)C=CC2=O`, the GI50 is 24.7 µM (inactive) in the assay on IGROV-1; 29.9 µM (inactive) in the assay with HT-29; 20.2 µM (inactive) in the assay on TK-10; 18.5 µM (inactive) in the assay on SF-295; 15.1 µM (inactive) with ACHN; 15.9 µM (inactive) with LOX IMVI. For the same compound, the GI50 was 15.1 µM (inactive) in the assay on Malme-3M; 20 µM (inactive) with SF-539; 17.1 µM (inactive) in the assay on 786-0; 17.1 µM (inactive) in the assay on RXF 393; 18.2 µM (inactive) with RPMI-8226; 33.5 µM (inactive) with NCI-H226. Besides, the GI50 was 15.3 µM (inactive) in the assay on OVCAR-4; 21.4 µM (inactive) in the assay with SNB-75; 17.3 µM (inactive) in the assay on OVCAR-3; 15.6 µM (inactive) in the assay with SF-268; 17.5 µM (inactive) with KM12; 19.6 µM (inactive) in the assay on M14. Also, the GI50 in the assay with SNB-78 is 13 µM (inactive).
As to `CCOc1ccc(NC(=O)/C(=C/c2ccccc2)C(C)=O)cc1`, the GI50 with IGROV-1 was 10.2 µM (inactive); with HT-29, 10.3 µM (inactive); with TK-10, 17.3 µM (inactive); with SF-295, 13.5 µM (inactive); in the assay with ACHN, 15.3 µM (inactive); in the assay on LOX IMVI it was 7.14 µM (inactive). Besides, the GI50 is 16.5 µM (inactive) in the assay on Malme-3M; 10.1 µM (inactive) with SF-539; 12.2 µM (inactive) in the assay with 786-0; 5.32 µM (inactive) in the assay with RXF 393; 2.94 µM (inactive) in the assay with RPMI-8226; 13.2 µM (inactive) in the assay with NCI-H226. Besides, the GI50 in the assay on OVCAR-4 was 13.4 µM (inactive); in the assay with SNB-75 it was 4.59 µM (inactive); in the assay with OVCAR-3, 12.5 µM (inactive); in the assay with SF-268 it was 11.3 µM (inactive); in the assay with KM12, 7.1 µM (inactive); with M14, 12.3 µM (inactive). In addition, in the assay with SNB-78, the GI50 was 13.4 µM (inactive).
As to `C[N+](C)(C)CC(=O)N/N=C(/C(=O)Nc1ccc(Br)cc1)C1C(=O)NC(=O)NC1=O`, the GI50 in the assay with IGROV-1, with HT-29, with TK-10, with SF-295, with ACHN and in the assay on LOX IMVI was > 100 µM (inactive) each time. For the same compound, the GI50 in the assay on Malme-3M, with SF-539, in the assay on 786-0, in the assay with RXF 393, with RPMI-8226 and in the assay with NCI-H226 was > 100 µM (inactive) each time. For the same compound, the GI50 in the assay with OVCAR-4, in the assay with SNB-75, in the assay on OVCAR-3, with SF-268, in the assay with KM12 and with M14 was > 100 µM (inactive) each time. Further, the GI50 in the assay on SNB-78 was > 100 µM (inactive).
Take `O=C(Cc1ccc(F)cc1)NC1=C(Cl)C(=O)c2ccccc2C1=O`: the GI50 was 2.61 µM (inactive) in the assay on IGROV-1; 17.3 µM (inactive) in the assay on HT-29; 6.9 µM (inactive) with TK-10; 3.83 µM (inactive) in the assay with SF-295; 1.47 µM (inactive) in the assay with ACHN; 2.95 µM (inactive) in the assay with LOX IMVI. Further, the GI50 with Malme-3M is 2.77 µM (inactive); in the assay with SF-539, 2.24 µM (inactive); with 786-0 it was 6.58 µM (inactive); in the assay with RXF 393, 1.05 µM (active); with RPMI-8226 it was 0.262 µM (active); in the assay with NCI-H226, 3.4 µM (inactive). In addition, the GI50 in the assay with OVCAR-4 was 2.06 µM (inactive); with SNB-75 it was 2.5 µM (inactive); with OVCAR-3, 2.75 µM (inactive); with SF-268 it was 4.05 µM (inactive); with KM12, 3.52 µM (inactive); in the assay with M14, 3.16 µM (inactive). Also, the GI50 with SNB-78 was 7.03 µM (inactive).
In the case of `Cc1cc(C)c([O-])c(-[n+]2c(-c3ccccc3)cc(-c3ccccc3)cc2-c2ccccc2)c1`, the GI50 was 4.04 µM (inactive) in the assay on IGROV-1; 2.98 µM (inactive) with HT-29; 6.22 µM (inactive) in the assay with TK-10; 4.98 µM (inactive) with SF-295; 5.13 µM (inactive) with ACHN; 1.72 µM (inactive) with LOX IMVI. In addition, the GI50 was 4.28 µM (inactive) in the assay on Malme-3M; 11.2 µM (inactive) in the assay with SF-539; 6.78 µM (inactive) with 786-0; 6.73 µM (inactive) in the assay on RXF 393; 2.79 µM (inactive) in the assay with RPMI-8226; 10.1 µM (inactive) in the assay on NCI-H226. Besides, the GI50 is 4.28 µM (inactive) in the assay on OVCAR-4; 6.18 µM (inactive) in the assay with SNB-75; 3.67 µM (inactive) in the assay with OVCAR-3; 7.82 µM (inactive) with SF-268; 3.21 µM (inactive) with KM12; 5.57 µM (inactive) in the assay on M14. In the assay on SNB-78, the GI50 was 6.24 µM (inactive).
On to `C[N+](C)(C)CCc1ccccc1`, for which the GI50 in the assay on IGROV-1, in the assay with HT-29, in the assay on TK-10, with SF-295, in the assay with ACHN and in the assay on LOX IMVI was > 100 µM (inactive) in each case. In addition, the GI50 in the assay on Malme-3M, in the assay on SF-539, in the assay with 786-0, with RXF 393, in the assay on RPMI-8226 and in the assay on NCI-H226 was > 100 µM (inactive) each time. Besides, the GI50 in the assay with OVCAR-4, with SNB-75, in the assay on OVCAR-3, in the assay on SF-268, in the assay on KM12 and in the assay on M14 was > 100 µM (inactive) each time. Besides, in the assay on SNB-78, the GI50 is > 100 µM (inactive).
Regarding `COc1cc2c(cc1C)[n+]([O-])c(C)c(C(=O)C/C(=N/NC(=O)C[N+](C)(C)C)C(=O)Nc1cccc(Cl)c1C)[n+]2[O-]`, the GI50 with IGROV-1, with HT-29, in the assay with TK-10, in the assay on SF-295, in the assay on ACHN and with LOX IMVI was > 100 µM (inactive) in each case. Further, the GI50 in the assay with Malme-3M, in the assay on SF-539, in the assay with 786-0, in the assay on RXF 393, in the assay with RPMI-8226 and in the assay with NCI-H226 was > 100 µM (inactive) each time. Further, the GI50 in the assay on OVCAR-4, with SNB-75, with OVCAR-3, in the assay with SF-268, with KM12 and in the assay on M14 was > 100 µM (inactive) each time. Further, in the assay with SNB-78, the GI50 was > 100 µM (inactive).
Consider `C(=C\c1c2oc(-c3ccccc3)cc(-c3ccccc3)c-2c2ccccc12)/C=C1\c2ccccc2-c2c(-c3ccccc3)cc(-c3ccccc3)[o+]c21.[O-][Cl+3]([O-])([O-])[O-]`, for which the GI50 with IGROV-1, in the assay on HT-29, in the assay on TK-10, with SF-295, in the assay on ACHN and in the assay on LOX IMVI was > 100 µM (inactive) each time. For the same compound, the GI50 in the assay with Malme-3M, in the assay on SF-539, in the assay with 786-0, in the assay with RXF 393, in the assay on RPMI-8226 and in the assay with NCI-H226 was > 100 µM (inactive) throughout. Moreover, the GI50 in the assay on OVCAR-4 is > 100 µM (inactive); with SNB-75, 45.9 µM (inactive); in the assay on OVCAR-3, > 100 µM (inactive); in the assay with SF-268, > 100 µM (inactive); in the assay on M14, 37 µM (inactive); with SNB-78 it was > 100 µM (inactive).
Regarding `COc1cccc2c1C1=CC(=O)CCC1C(C)(C)O2` (centres undefined), the GI50 with IGROV-1 is > 100 µM (inactive); with HT-29, > 100 µM (inactive); in the assay on TK-10, > 100 µM (inactive); in the assay with SF-295, > 100 µM (inactive); in the assay with ACHN, > 100 µM (inactive); in the assay with LOX IMVI, 35.7 µM (inactive). Moreover, the GI50 was > 100 µM (inactive) in the assay on Malme-3M; > 100 µM (inactive) in the assay with SF-539; > 100 µM (inactive) in the assay with 786-0; 6.03 µM (inactive) with RXF 393; 20.6 µM (inactive) in the assay with RPMI-8226; > 100 µM (inactive) in the assay on NCI-H226. Moreover, the GI50 in the assay with OVCAR-4 is > 100 µM (inactive); in the assay with SNB-75, > 100 µM (inactive); with OVCAR-3, > 100 µM (inactive); in the assay on SF-268 it was 44.1 µM (inactive); in the assay with KM12, 45.6 µM (inactive); in the assay on M14, > 100 µM (inactive). In addition, in the assay on SNB-78, the GI50 was > 100 µM (inactive).
Consider `O=C1/C(=C/c2ccc(Cl)cc2)CCC1CNc1ccc(Cl)cc1` (centres undefined), for which the GI50 was 6.12 µM (inactive) in the assay on IGROV-1; 3.67 µM (inactive) in the assay on HT-29; 5.11 µM (inactive) with TK-10; 6.79 µM (inactive) in the assay on SF-295; 1.57 µM (inactive) in the assay with ACHN; 0.673 µM (active) in the assay with LOX IMVI. Moreover, the GI50 in the assay with Malme-3M is 18 µM (inactive); in the assay with SF-539, 7.76 µM (inactive); in the assay with 786-0, 2.26 µM (inactive); with RXF 393 it was 11.6 µM (inactive); in the assay on RPMI-8226, 0.78 µM (active); in the assay with NCI-H226, 28.4 µM (inactive). The GI50 in the assay with OVCAR-4 is 18.9 µM (inactive); in the assay with SNB-75 it was 32.3 µM (inactive); in the assay with OVCAR-3, 7.18 µM (inactive); with SF-268, 7.4 µM (inactive); in the assay on KM12, 1.29 µM (inactive); in the assay with M14, 2.37 µM (inactive). For the same compound, in the assay on SNB-78, the GI50 was 23.7 µM (inactive).
